Tests used:
Type in all cases: biochemical
p110β/p85α = p110β/p85α (Homo sapiens, UniProt P42338); assay: Transcreener KINASE Assay, kinase inhibition of p110β/p85α; details: for PI3Kβ IH % @ 1 uM: 1 uM test compound; for IC50: read-out: PI3Kβ IC50
In short: (§1)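 Steps: compound (2% DMSO final) plus enzyme in HEPES/NaCl/EGTA/CHAPS/3 mM MgCl2/1 mM DTT buffer; start with PIP2/ATP addition (30 uM/10 uM solution); 80 min RT; add ADP detection mix, 60 min RT; read fluorescence polarization.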

p110δ/p85α = p110δ/p85α (Homo sapiens, UniProt O00329); assay: Transcreener KINASE Assay, kinase inhibition of p110δ/p85α; details: for PI3Kδ IH % @ 1 uM: 1 uM test compound; for IC50: read-out: PI3Kδ IC50
In short: as §1

p110γ = p110γ (Homo sapiens, UniProt P48736); assay: Transcreener KINASE Assay, kinase inhibition of p110γ; details: for PI3Kγ IH % @ 1 uM: 1 uM test compound; for IC50: read-out: PI3Kγ IC50
In short: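 FP read-out: far-red competitive immunoassay sensing ADP produced by recombinant p110/p85 or p110γ enzyme. Reaction 80 min RT, then detection mix 60 min RT. IC50 from curve fit.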

Chain of p110β/p85α (P42338 whole entry): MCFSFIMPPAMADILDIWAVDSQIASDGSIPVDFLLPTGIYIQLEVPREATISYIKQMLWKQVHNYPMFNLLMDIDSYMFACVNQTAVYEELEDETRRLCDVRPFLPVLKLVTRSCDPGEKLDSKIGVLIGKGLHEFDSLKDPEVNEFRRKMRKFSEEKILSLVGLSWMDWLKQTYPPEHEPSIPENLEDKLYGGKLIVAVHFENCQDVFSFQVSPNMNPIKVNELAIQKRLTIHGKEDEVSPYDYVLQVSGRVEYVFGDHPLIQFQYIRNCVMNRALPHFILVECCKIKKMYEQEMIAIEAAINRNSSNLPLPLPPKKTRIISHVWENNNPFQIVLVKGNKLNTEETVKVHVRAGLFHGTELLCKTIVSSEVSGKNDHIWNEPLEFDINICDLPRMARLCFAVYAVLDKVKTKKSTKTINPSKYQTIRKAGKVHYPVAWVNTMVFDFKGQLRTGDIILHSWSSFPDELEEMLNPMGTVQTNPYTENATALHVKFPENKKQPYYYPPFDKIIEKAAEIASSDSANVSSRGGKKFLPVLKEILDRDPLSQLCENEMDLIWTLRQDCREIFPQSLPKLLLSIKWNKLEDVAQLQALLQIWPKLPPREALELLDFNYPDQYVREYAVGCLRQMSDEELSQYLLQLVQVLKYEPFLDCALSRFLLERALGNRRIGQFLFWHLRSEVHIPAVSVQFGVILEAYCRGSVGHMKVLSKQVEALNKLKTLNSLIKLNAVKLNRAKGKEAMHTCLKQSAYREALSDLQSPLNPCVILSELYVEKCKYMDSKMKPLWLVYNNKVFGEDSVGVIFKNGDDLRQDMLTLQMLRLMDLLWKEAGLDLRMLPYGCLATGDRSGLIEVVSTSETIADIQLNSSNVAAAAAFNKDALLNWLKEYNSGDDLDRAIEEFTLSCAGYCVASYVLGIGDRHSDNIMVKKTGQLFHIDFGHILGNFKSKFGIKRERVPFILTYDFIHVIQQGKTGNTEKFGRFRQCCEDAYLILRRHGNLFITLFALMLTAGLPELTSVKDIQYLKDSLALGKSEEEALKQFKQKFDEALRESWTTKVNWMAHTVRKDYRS
Chain of p110β/p85α (P27986 2-724 partner): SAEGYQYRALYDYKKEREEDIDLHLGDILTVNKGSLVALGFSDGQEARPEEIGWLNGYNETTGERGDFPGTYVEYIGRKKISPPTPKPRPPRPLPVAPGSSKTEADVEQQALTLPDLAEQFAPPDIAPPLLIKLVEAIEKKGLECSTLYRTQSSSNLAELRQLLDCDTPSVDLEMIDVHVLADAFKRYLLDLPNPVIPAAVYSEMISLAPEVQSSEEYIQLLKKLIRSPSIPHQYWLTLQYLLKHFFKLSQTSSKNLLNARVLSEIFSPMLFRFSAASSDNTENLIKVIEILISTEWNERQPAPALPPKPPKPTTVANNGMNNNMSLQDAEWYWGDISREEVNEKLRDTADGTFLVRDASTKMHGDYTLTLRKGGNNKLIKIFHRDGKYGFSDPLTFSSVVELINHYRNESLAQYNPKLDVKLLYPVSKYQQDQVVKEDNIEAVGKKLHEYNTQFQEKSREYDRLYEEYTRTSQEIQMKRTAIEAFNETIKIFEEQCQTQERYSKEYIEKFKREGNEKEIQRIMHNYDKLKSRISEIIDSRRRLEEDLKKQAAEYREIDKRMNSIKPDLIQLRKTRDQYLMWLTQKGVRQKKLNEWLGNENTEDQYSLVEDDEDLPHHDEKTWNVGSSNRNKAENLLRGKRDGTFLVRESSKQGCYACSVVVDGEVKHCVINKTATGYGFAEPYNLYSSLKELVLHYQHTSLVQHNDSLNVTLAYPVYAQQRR
Chain of p110δ/p85α (O00329 whole entry): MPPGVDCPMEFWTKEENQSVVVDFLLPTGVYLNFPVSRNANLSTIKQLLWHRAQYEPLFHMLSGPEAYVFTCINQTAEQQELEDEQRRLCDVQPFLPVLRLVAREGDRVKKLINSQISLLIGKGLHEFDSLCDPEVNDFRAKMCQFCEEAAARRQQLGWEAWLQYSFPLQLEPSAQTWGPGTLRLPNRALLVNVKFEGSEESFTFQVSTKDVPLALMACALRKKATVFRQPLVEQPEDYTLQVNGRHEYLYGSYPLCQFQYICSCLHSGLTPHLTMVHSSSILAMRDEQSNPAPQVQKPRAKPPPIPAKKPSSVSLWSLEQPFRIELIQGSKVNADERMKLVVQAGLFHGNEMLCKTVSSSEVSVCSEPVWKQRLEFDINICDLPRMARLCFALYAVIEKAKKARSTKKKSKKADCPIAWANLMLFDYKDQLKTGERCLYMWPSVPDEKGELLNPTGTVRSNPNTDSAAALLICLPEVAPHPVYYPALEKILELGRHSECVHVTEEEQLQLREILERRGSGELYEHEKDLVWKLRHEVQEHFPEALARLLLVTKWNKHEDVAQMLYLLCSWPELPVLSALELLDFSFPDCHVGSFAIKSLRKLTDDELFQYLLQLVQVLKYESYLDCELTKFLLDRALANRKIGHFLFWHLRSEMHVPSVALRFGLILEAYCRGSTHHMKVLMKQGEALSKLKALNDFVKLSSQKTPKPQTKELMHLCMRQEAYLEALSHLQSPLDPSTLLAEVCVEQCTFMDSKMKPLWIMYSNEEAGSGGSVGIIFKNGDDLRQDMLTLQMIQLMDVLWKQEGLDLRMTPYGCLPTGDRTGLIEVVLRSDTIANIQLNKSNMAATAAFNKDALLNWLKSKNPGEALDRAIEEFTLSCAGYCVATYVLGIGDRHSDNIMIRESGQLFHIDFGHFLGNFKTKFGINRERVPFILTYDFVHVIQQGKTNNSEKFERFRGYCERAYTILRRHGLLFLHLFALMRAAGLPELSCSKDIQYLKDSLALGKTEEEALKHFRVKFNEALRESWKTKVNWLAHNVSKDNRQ
Chain of p110δ/p85α (P27986 whole entry partner): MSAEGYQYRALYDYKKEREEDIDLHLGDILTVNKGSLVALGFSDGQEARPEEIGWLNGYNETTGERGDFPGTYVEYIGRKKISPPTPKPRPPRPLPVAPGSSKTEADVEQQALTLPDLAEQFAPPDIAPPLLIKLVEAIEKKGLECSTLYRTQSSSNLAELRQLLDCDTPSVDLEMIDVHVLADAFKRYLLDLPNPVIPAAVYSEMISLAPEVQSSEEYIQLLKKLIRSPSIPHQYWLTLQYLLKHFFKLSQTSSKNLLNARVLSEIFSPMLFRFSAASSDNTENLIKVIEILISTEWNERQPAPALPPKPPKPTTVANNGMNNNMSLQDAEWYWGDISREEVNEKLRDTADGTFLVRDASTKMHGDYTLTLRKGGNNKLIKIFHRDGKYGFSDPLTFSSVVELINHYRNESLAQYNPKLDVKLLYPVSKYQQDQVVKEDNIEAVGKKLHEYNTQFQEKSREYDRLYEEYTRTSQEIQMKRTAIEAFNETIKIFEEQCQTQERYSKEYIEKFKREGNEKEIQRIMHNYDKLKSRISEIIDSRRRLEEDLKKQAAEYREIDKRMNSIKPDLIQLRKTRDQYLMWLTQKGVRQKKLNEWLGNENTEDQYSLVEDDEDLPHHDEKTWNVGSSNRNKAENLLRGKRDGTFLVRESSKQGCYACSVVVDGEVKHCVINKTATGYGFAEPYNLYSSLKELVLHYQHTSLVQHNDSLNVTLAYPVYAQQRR
Chain of p110γ (P48736 whole entry): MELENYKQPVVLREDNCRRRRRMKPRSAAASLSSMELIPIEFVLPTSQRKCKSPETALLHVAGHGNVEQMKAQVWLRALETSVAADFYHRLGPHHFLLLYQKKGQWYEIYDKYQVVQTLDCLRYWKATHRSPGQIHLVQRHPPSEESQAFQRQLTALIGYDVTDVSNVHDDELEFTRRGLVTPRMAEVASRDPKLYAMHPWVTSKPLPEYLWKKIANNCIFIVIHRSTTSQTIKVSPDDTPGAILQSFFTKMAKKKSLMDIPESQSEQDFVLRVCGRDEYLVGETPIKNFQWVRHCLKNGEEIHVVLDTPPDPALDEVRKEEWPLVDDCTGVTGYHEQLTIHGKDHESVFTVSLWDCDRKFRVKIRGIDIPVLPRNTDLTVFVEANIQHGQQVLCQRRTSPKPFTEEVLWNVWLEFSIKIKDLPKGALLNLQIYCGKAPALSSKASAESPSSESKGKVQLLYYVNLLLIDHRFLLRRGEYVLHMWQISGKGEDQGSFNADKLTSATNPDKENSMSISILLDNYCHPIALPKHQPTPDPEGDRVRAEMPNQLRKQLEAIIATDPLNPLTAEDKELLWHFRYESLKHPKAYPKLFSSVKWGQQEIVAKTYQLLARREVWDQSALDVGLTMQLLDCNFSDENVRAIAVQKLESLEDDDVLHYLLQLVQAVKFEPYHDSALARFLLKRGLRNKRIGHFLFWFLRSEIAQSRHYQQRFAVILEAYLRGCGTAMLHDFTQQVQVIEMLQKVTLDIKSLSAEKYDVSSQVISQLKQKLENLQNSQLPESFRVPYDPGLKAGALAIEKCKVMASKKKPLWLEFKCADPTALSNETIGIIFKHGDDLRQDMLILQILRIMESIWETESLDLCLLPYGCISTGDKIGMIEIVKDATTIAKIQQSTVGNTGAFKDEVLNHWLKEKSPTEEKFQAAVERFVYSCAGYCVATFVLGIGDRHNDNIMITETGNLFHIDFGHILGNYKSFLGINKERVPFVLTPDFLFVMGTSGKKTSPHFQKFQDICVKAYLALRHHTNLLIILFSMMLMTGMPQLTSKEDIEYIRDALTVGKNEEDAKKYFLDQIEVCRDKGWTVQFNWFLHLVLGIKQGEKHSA

| Structure (SMILES) | PI3Kβ IH % @ 1 uM (p110β/p85α) | PI3Kδ IH % @ 1 uM (p110δ/p85α) | PI3Kγ IH % @ 1 uM (p110γ) | IC50 (p110δ/p85α) | IC50 (p110γ) | IC50 (p110β/p85α) |
| --- | --- | --- | --- | --- | --- | --- |
| Nc1nc2c(c(N3CC[C@H]3c3nn4ccc(Cl)c4c(=O)n3-c3ccccc3)n1)CCC2 [Compound 247] | 4.8% | 53.0% | 73.0% | – | – | – |
| Nc1nc2c(c(N3CC[C@H]3c3nn4ccc(F)c4c(=O)n3-c3ccccc3)n1)C(=O)CCN2 [Compound 248] | −10.7% | 96.2% | 98.0% | 9 nM | 9 nM | – |
| Nc1nc2c(c(N3CCC[C@H]3c3nn4ccc(F)c4c(=O)n3-c3ccccc3)n1)C(=O)CCN2 [Compound 249] | 24.8% | 99.3% | 98.0% | 8 nM | 29 nM | – |
| Nc1nc2c(c(N3C[C@@H](F)C[C@H]3c3nn4ccc(F)c4c(=O)n3-c3ccccc3)n1)C(=O)CCN2 [Compound 250] | 33.4% | 99.1% | 95.8% | 22 nM | 45 nM | – |
| CN(C)CCn1c([C@@H]2CCCN2c2ncnc3[nH]cnc23)nn2ccc(Cl)c2c1=O [Compound 251] | 50.4% | 88.3% | 56.3% | 102 nM | – | – |
| CN(C)CCn1c([C@@H]2CCCN2c2ncnc3[nH]cc(C#N)c23)nn2ccc(Cl)c2c1=O [Compound 252] | 56.6% | 97.0% | 68.9% | 7 nM | – | – |
| O=c1c2c(Cl)ccn2nc([C@@H]2CCCN2c2ncnc3[nH]cnc23)n1CCN1CCOCC1 [Compound 253] | 45.1% | 92.8% | 69.0% | 52 nM | 553 nM | – |
| N#Cc1c[nH]c2ncnc(N3CCC[C@H]3c3nn4ccc(Cl)c4c(=O)n3CCN3CCOCC3)c12 [Compound 255] | 72.6% | >100% | >100% | 4 nM | 73 nM | 304 nM |
| N#Cc1c[nH]c2ncnc(N3CCC[C@H]3c3nn4ccc(Cl)c4c(=O)n3CC3CC3)c12 [Compound 257] | 82.4% | >100% | >100% | 2 nM | 18 nM | 80 nM |
| N#Cc1c[nH]c2ncnc(N3CCC[C@H]3c3nn4ccc(Cl)c4c(=O)n3CC3CCCCC3)c12 [Compound 258] | 10.4% | 94.7% | 73.0% | 76 nM | 467 nM | – |
| CC(C)Cn1c([C@@H]2CCN2c2ncnc3[nH]cc(C#N)c23)nn2ccc(Cl)c2c1=O [Compound 259] | 41.5% | 98.8% | 89.5% | 27 nM | 170 nM | – |
| CC(C)Cn1c([C@@H]2CCN2c2nc(N)ncc2C#N)nn2ccc(Cl)c2c1=O [Compound 260] | 39.6% | 98.0% | 90.9% | 40 nM | 163 nM | – |
| N#Cc1c[nH]c2ncnc(N3C[C@@H](O)C[C@H]3c3nn4ccc(Cl)c4c(=O)n3-c3cccc(F)c3)c12 [Compound 261] | >100% | >100% | >100% | 1 nM | 3 nM | 31 nM |
| O=c1c2c(Cl)ccn2nc([C@@H]2C[C@H](O)CN2c2ncnc3[nH]cnc23)n1-c1ccccc1 [Compound 262] | 88.8% | 97.1% | 93.4% | – | 11 nM | 18 nM |
| CO[C@H]1C[C@@H](c2nn3ccc(Cl)c3c(=O)n2-c2ccccc2)N(c2ncnc3[nH]cnc23)C1 [Compound 263] | 74.5% | >100% | >100% | 4 nM | 17 nM | 118 nM |
| COCCO[C@H]1C[C@@H](c2nn3ccc(Cl)c3c(=O)n2-c2ccccc2)N(c2ncnc3[nH]cc(C#N)c23)C1 [Compound 264, 4-((2S,4S)-2-(5-chloro-4-oxo-3-phenyl-3,4-dihydropyrrolo[2,1-f][1,2,4]triazin-2-yl)-4-(2-methoxyethoxyl)pyrrolidin-1-yl)-7H-pyrrolo[2,3-d]pyrimidine-5-carbonitrile] | 92.8% | >100% | >100% | 1 nM | 3 nM | 69 nM |
| O=c1c2c(Cl)ccn2nc([C@@H]2C[C@H](OCCO)CN2c2ncnc3[nH]cnc23)n1-c1ccccc1 [Compound 265] | 68.6% | >100% | >100% | 1 nM | 11 nM | 300 nM |
| COCCO[C@H]1C[C@@H](c2nn3ccc(Cl)c3c(=O)n2-c2ccccc2)N(c2ncnc3[nH]cnc23)C1 [Compound 266] | 49.9% | >100% | >100% | 6 nM | 21 nM | – |

From patent US20150307520A1, “NOVEL HETEROARYL AND HETEROCYCLE COMPOUNDS, COMPOSITIONS AND METHODS THEREOF” (HUTCHISON MEDIPHARMA LIMITED, priority 2012, published 2015)
